Assay results taken from patent US12509447B2, “Small molecule compound” (Technoderma Medicines Pte Ltd, priority 2019, dated 2025).

Legend:
Type in all cases: biochemical
Tyk2 = Tyk2 (Homo sapiens, UniProt P29597); test: Inhibition of JAK kinase activity, EZ Reader microfluidic phosphorylation of peptide substrate: Tyk2; details: Tyk2 kinase 1 nM; highest final concentration 10 μM, 1:3 serial dilution, 8 points, duplicates
Procedure, shortened: (§1)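 Microfluidic mobility-shift assay reading fluorescent peptide substrate and product; kinases at 20 nM (JAK1) or 1 nM (JAK2, JAK3, Tyk2) in pH 7.4 HEPES with 10 mM MgCl2, run at room temperature to 20-30% conversion, then stopped with EDTA. Compounds tested from 10 μM top, 1:3 over 8 points in duplicate; IC50 fitted from % conversion.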

JAK1 = JAK1 (Homo sapiens, UniProt P23458); test: Inhibition of JAK kinase activity, EZ Reader microfluidic phosphorylation of peptide substrate: JAK1; details: JAK1 kinase 20 nM; highest final concentration 10 μM, 1:3 serial dilution, 8 points, duplicates
Sequence of JAK1 (P23458 whole entry): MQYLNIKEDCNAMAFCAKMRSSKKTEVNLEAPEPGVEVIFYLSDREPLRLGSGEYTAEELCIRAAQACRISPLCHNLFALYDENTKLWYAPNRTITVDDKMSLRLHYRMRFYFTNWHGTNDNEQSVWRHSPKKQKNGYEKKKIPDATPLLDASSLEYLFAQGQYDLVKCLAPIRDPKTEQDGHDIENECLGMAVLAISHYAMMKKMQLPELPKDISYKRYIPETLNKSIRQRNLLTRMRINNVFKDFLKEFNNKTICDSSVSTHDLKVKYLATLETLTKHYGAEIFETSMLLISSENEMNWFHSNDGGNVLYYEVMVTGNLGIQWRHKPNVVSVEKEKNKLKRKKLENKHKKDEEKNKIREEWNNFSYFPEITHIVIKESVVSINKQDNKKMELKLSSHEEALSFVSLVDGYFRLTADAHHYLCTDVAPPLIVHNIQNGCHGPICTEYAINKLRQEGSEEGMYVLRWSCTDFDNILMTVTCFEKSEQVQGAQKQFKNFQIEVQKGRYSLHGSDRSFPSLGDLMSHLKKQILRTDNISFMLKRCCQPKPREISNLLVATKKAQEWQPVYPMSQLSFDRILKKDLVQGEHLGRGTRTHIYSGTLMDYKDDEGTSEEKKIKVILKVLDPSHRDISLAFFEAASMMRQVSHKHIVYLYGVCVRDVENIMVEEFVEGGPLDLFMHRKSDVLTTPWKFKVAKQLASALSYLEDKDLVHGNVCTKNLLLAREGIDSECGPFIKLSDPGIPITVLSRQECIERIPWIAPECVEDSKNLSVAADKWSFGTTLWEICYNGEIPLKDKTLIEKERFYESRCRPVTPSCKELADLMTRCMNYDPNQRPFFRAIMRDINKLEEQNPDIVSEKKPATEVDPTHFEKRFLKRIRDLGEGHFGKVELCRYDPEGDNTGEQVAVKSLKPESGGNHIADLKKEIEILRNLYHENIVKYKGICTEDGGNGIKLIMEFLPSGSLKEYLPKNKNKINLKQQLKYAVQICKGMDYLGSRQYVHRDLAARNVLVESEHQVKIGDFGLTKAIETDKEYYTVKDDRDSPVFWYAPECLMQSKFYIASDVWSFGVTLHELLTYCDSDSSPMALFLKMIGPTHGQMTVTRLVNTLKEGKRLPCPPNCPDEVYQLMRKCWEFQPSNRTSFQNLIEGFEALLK
Procedure, shortened: as §1

JAK2 = JAK2 (Homo sapiens, UniProt O60674); test: Inhibition of JAK kinase activity, EZ Reader microfluidic phosphorylation of peptide substrate: JAK2; details: JAK2 kinase 1 nM; highest final concentration 10 μM, 1:3 serial dilution, 8 points, duplicates
Sequence of JAK2 (O60674 whole entry): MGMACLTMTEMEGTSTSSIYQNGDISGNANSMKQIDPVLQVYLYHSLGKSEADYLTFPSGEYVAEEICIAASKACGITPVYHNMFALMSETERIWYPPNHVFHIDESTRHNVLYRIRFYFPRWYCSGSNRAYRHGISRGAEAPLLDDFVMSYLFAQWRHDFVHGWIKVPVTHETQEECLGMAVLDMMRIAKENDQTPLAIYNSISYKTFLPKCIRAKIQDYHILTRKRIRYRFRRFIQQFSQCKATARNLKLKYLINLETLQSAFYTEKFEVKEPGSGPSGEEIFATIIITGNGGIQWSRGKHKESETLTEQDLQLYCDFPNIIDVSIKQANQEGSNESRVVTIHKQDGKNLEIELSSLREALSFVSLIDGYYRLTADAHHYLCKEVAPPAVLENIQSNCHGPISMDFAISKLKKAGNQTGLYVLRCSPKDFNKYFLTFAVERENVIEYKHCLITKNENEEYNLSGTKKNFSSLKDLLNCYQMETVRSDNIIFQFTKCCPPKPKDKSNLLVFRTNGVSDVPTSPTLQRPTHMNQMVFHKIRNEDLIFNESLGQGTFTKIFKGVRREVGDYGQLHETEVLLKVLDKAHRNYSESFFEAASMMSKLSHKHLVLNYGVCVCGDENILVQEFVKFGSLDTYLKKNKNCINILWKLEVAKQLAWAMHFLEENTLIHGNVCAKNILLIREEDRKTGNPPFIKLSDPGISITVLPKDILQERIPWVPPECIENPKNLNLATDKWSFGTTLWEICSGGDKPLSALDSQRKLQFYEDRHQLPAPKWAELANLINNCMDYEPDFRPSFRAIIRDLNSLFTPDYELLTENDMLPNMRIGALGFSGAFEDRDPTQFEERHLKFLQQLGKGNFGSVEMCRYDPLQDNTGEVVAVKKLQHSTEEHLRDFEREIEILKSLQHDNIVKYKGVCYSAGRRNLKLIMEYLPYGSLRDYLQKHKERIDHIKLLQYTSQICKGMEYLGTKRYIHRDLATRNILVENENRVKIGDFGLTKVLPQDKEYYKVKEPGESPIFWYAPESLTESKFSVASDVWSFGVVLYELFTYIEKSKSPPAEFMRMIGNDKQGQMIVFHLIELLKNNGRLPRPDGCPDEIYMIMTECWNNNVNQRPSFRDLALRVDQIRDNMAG
From the text: (§2) EZ Reader available from PerkinElmer can be used for detecting the phosphorylation of polypeptide substrates catalyzed by kinases. This device is based on microfluidic separation technology, and can directly detect fluorescence labeled substrates and products. The separation step is achieved in a microfluidic chip by controlling the pressure and electric field intensity. In a kinase experiment, the product conversion rate is generally controlled at 20-30%. This biological assay method is used for identifying the inhibitory effect of the compounds on JAK.
(§3) The compound powder was dissolved in DMSO, sealed and stored in a refrigerator at −20° C. The in-house compound Ref1 was used as a positive control for testing of JAK1, JAK2 and Tyk2, and Ref2 was used as a positive control for testing of JAK3.
(§4) • S2.1. 1M HEPES buffer: 0.5M HEPES free acid and 0.5M HEPES sodium salt are weighed, added into ultrapure water for dissolution, brought to a desired volume, filtered and stored in a refrigerator at 4° C. • S2.2. 40 mM ATP solution: dissolved in a 50 mM HEPES buffer solution, prepared into 40 mM, aliquoted, and cryopreserved in a refrigerator at −20° C. • S2.3. 0.5% Tween 20: 100% Tween 20 was diluted with ultrapure water, and stored in a refrigerator at 4° C. • S2.4. 35% bovine serum albumin: a 35% bovine serum albumin solution is prepared in ultrapure water, aliquoted, and stored in a refrigerator at −20° C. • S2.5. 1M dithiothreitol solution: dithiothreitol is formulated into a 1M solution with ultrapure water, aliquoted, and stored in a refrigerator at −20° C. • S2.6. 0.5 mM Jaktide Peptide substrate solution: it is dissolved in 50 mM HEPES to 0.5 mM, aliquoted, and stored in a refrigerator at −20° C. • S2.7. 0.5 mM IRStide Peptide substrate solution: it is dissolved in 50 mM HEPES to 0.5 mM, aliquoted, and stored in a refrigerator at −20° C. • S2.8. Assay Buffer: 20 mM HEPES buffer, pH 7.4, 10 mM magnesium chloride, 0.01% bovine serum albumin BSA, 0.0005% Tween-20, and a 1 mM dithiothreitol solution. • S2.9. Stop Buffer: 180 mM HEPES buffer, 20 mM ethylenediamine tetraacetic acid (EDTA), and 0.2% Coating Reagent 3. • S2.10. Separation Buffer: 100 mM HEPES buffer, 10 mM EDTA, 0.0005% Tween 20, 0.1% Coating Reagent 3, and 1% dimethyl sulfoxide. 3. Experimental Procedures • S3.1. Preparation of compound plate
(§5) The compound is dissolved in dimethyl sulfoxide to 10 mM, a certain volume is taken and diluted to 0.6 mM, 10 μl of the diluted 0.6 mM solution is taken and added into a 384 microplate or 1:3 serial dilution, with a total of 8 concentration points. • S3.2. Compound layout
(§6) • positive control (HPE1): Ref1, final concentration: 10 μM • positive control (HPE1): Ref2, final concentration: 10 μM • negative control (ZPE): DMSO, with a final concentration of 1.6% • Compound: the highest final concentration at 10 μM, 1:3 serial dilution, with 8 concentration points and in duplicates. 4. Experimental operation steps • S4.1. the experimental plate was added with 250 nl of the compound per well with ECHO, and centrifuged at 1,000 rpm for 1 minute; • S4.2. the precipitate was added with 5 μl of the experimental buffer, and shaken for several seconds to fully dissolve the compound; • S4.3. the solution was added with 5 μl of a 3× substrate solution, as well as 5 μl of a 3× kinase solution, and centrifuged at 800 rpm for 1 minute; • S4.4. The final concentrations of JAK1, JAK2, JAK3 and Tyk2 kinases in the reaction system are 20, 1, 1 and 1 nM, respectively. • S4.5. the reaction system is incubated at room temperature, wherein the incubation time of each kinase is different, and there are differences in incubation time of different batches of kinases. • S4.6. When the reaction reaches 20%-30%, the reaction system is added with 15 μl of the stop buffer to terminate the reaction, and centrifuged at 1,000 rpm for 2 minutes. • S4.7. The precipitate was placed onto a EZ Reader for plate reading. • S4.8. […]

JAK3 = target: T1, JAK3 (Homo sapiens, UniProt P52333); test: Inhibition of JAK kinase activity, EZ Reader microfluidic phosphorylation of peptide substrate: JAK3; details: JAK3 kinase 1 nM; highest final concentration 10 μM, 1:3 serial dilution, 8 points, duplicates
T1 sequence (P52333 1-1124): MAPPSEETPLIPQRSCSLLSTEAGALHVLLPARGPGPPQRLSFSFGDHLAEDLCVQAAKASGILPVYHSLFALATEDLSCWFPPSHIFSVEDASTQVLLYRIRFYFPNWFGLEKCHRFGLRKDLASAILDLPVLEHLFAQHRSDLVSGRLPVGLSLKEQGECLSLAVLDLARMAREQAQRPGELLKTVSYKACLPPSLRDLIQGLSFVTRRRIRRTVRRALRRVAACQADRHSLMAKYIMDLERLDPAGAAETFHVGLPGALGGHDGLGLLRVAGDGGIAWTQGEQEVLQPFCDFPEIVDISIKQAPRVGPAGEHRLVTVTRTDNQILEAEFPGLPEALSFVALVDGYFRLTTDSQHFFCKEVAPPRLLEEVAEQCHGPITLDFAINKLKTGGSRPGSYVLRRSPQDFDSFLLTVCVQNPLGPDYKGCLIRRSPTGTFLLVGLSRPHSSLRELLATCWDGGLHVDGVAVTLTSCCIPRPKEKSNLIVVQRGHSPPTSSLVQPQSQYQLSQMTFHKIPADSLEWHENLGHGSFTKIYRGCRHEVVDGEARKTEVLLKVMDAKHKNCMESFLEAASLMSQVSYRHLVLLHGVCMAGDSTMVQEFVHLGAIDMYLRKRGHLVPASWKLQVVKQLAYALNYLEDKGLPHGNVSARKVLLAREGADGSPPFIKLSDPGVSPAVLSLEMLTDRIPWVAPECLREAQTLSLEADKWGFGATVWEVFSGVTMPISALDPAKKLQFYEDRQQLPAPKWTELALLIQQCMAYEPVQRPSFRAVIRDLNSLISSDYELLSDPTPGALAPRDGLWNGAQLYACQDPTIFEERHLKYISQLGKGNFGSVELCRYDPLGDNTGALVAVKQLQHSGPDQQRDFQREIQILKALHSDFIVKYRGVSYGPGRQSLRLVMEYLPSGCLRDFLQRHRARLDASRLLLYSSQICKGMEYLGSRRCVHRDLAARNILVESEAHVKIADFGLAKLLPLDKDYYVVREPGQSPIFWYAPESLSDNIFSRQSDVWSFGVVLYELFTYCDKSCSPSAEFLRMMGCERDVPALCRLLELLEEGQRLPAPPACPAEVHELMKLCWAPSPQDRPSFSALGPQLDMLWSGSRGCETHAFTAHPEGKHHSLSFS
From the text: as §2, §3, §4, §5, §6

Sequence of Tyk2 (P29597 whole entry): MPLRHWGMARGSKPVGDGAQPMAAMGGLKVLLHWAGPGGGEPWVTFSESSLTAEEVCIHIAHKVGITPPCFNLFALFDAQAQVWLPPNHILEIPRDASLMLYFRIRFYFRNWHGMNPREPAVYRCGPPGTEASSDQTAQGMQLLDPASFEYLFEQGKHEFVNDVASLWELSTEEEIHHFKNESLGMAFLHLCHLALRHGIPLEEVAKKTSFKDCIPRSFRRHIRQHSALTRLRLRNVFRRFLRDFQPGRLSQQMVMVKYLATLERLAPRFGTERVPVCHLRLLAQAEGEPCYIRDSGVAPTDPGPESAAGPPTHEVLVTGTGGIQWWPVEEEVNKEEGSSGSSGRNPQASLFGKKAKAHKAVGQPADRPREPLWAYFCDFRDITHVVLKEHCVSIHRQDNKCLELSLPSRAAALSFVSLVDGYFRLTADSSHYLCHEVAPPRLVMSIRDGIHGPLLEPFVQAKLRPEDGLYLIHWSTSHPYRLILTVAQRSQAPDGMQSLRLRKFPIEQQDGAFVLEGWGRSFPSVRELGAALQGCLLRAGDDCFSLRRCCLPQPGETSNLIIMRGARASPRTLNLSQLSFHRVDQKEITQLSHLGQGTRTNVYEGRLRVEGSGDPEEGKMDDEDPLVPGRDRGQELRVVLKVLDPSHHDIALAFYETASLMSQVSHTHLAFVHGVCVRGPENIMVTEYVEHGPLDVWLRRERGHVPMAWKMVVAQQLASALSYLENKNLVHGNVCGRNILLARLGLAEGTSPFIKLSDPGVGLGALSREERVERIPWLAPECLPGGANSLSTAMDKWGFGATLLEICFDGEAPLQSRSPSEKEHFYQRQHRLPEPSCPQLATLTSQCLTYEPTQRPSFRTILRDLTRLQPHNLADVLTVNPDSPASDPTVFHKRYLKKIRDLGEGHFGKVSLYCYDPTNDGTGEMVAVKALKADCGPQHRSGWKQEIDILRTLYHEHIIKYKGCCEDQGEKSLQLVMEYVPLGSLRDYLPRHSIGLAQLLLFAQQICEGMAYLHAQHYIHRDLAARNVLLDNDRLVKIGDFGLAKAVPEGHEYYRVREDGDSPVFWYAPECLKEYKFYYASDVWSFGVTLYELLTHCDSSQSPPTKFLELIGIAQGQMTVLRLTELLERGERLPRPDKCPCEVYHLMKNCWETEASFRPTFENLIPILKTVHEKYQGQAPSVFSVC

SMILES | IC50 (Tyk2) | IC50 (JAK1) | IC50 (JAK2) | IC50 (JAK3)
Cn1cc(Nc2nccc(-c3cnn(C4CCN(C(=O)CC(F)(F)F)C4)c3)n2)cn1 (centres unmarked) [TDM-180651, 3,3,3-trifluoro-1-(3-(4-(2-((1-methyl-1H-pyrazol-4-yl)amino)pyrimidin-4-yl)-1H-pyrazol-1-yl)pyrrolidine-yl)propan-1-one] | ≥ 10 µM | ≥ 10 µM | 1 to 10 µM | ≥ 10 µM
Cn1cc(Nc2nccc(-c3cnn(C4CCN(C(=O)C5CC5)C4)c3)n2)cn1 (centres unmarked) [TDM-180652, cyclopropyl(3-(4-(2-((1-methyl-1H-pyrazol-4-yl)amino)pyrimidin-4-yl)-1H-pyrazol-1-yl)pyrrolidin-1-yl)ketone] | ≥ 10 µM | ≥ 10 µM | ≥ 10 µM | ≥ 10 µM
Cn1cc(Nc2nccc(-c3cnn(C4CCN(C(=O)CC#N)C4)c3)n2)cn1 (centres unmarked) [TDM-180653, 3-(3-(4-(2-((1-methyl-1H-pyrazol-4-yl)amino)pyrimidin-4-yl)-1H-pyrazol-1-yl)pyrrolidin-1-yl)-3-oxopropanenitrile] | 1 to 10 µM | ≥ 10 µM | 1 to 10 µM | ≥ 10 µM
Cn1cc(Nc2nccc(-c3cnn(C4CCN(C(=O)C5CC5(F)F)C4)c3)n2)cn1 (centres unmarked) [TDM-180654, (2,2-difluorocyclopropyl)(3-(4-(2-((1-methyl-1H-pyrazol-4-yl)amino)pyrimidin-4-yl)-1H-pyrazol-1-yl)pyrrolidin-1-yl)ketone] | 1 to 10 µM | ≥ 10 µM | 1 to 10 µM | ≥ 10 µM
CCS(=O)(=O)N1CC(n2cc(-c3ccnc(Nc4cnn(C)c4)n3)cn2)C1 [TDM-180665, 4-(1-(1-(ethylsulfonyl)azetidin-3-yl)-1H-pyrazol-4-yl)-N-(1-methyl-1H-pyrazol-4-yl)pyrimidin-2-amine] | 1 to 10 µM | 1 to 10 µM | 1 to 10 µM | ≥ 10 µM
CCCS(=O)(=O)N1CC(n2cc(-c3ccnc(Nc4cnn(C)c4)n3)cn2)C1 [TDM-180666, N-(1-methyl-1H-pyrazol-4-yl)-4-(1-(1-(propylsulfonyl)azetidin-3-yl)-1H-pyrazol-4-yl)pyrimidin-2-amine] | ≥ 10 µM | ≥ 10 µM | 1 to 10 µM | ≥ 10 µM
Cn1cc(Nc2nccc(-c3cnn(C4CN(C(=O)C5CC5)C4)c3)n2)cn1 [TDM-180667, cyclopropyl(3-(4-(2-((1-methyl-1H-pyrazol-4-yl)amino)pyrimidin-4-yl)-1H-pyrazol-1-yl)azetidin-1-yl)ketone] | ≥ 10 µM | ≥ 10 µM | ≥ 10 µM | ≥ 10 µM
Cn1cc(Nc2nccc(-c3cnn(C4CN(C(=O)C5CC5(F)F)C4)c3)n2)cn1 (centres unmarked) [TDM-180668, (2,2-difluorocyclopropyl)(3-(4-(2-((1-methyl-1H-pyrazol-4-yl)amino)pyrimidin-4-yl)-1H-pyrazol-1-yl)azetidin-1-yl)ketone] | ≥ 10 µM | ≥ 10 µM | ≥ 10 µM | ≥ 10 µM
Cn1cc(Nc2nccc(-c3cnn(C4CN(C(=O)CC(F)(F)F)C4)c3)n2)cn1 [TDM-180669, 3,3,3-trifluoro-1-(3-(4-(2-((1-methyl-1H-pyrazol-4-yl)amino)pyrimidin-4-yl)-1H-pyrazol-1-yl)azetidin-yl)propan-1-one] | ≥ 10 µM | ≥ 10 µM | ≥ 10 µM | ≥ 10 µM
CCCC(=O)N1CC(n2cc(-c3ccnc(Nc4cnn(C)c4)n3)cn2)C1 [TDM-180670] | ≥ 10 µM | ≥ 10 µM | ≥ 10 µM | ≥ 10 µM
Cn1cc(Nc2nccc(-c3cnn(C4CN(C(=O)CC#N)C4)c3)n2)cn1 [TDM-180671, 3-(3-(4-(2-((1-methyl-1H-pyrazol-4-yl)amino)pyrimidin-4-yl)-1H-pyrazol-1-yl)azetidin-1-yl)-3-oxopropanenitrile] | ≥ 10 µM | ≥ 10 µM | ≥ 10 µM | ≥ 10 µM
Cn1cc(Nc2nccc(-c3cnn(C4CN(C(=O)CO)C4)c3)n2)cn1 [TDM-180672, 2-hydroxy-1-(3(4-(2-((1-methyl-1H-pyrazol-4-yl)amino)pyrimidin-4-yl)-1H-pyrazol-1-yl)azetidin-1-yl)ethanone] | ≥ 10 µM | ≥ 10 µM | ≥ 10 µM | ≥ 10 µM
Cn1cc(Nc2nccc(-c3cnn(C4CCN(C(=O)C5CC5)CC4)c3)n2)cn1 [TDM-180673, cyclopropyl(4-(4-(2-((1-methyl-1H-pyrazol-4-yl)amino)pyrimidin-4-yl)-1H-pyrazol-1-yl)piperidin-1-yl)ketone] | ≥ 10 µM | ≥ 10 µM | ≥ 10 µM | ≥ 10 µM
CCS(=O)(=O)N1CCC(n2cc(-c3ccnc(Nc4cnn(C)c4)n3)cn2)CC1 [TDM-180674, 4-(1-(1-(ethylsulfonyl)piperidin-4-yl)-1H-pyrazol-4-yl)-N-(1-methyl-1H-pyrazol-4-yl)pyrimidin-2-amine] | 1 to 10 µM | ≥ 10 µM | 1 to 10 µM | ≥ 10 µM
